US10561666B2, “Amido compounds as RORγt modulators and uses thereof” (New York University, priority 2010, dated 2020)

Biological target: RORγt (Mus musculus, UniProt P51450, T352K)
Test: RORγt S2 cell Gal4-luciferase reporter assay
Conditions: for Emax: read-out: Efficacy (%)
[1] = IC50(μM), Drosophila S2 cells, Gal4-RORγt luciferase reporter, 20 hr
[2] = S2 cell RORg IC50 μM, S2 cell reporter assay, listed for comparison

Sequence of RORγt (P51450 with tags, fused parts or gaps T352K): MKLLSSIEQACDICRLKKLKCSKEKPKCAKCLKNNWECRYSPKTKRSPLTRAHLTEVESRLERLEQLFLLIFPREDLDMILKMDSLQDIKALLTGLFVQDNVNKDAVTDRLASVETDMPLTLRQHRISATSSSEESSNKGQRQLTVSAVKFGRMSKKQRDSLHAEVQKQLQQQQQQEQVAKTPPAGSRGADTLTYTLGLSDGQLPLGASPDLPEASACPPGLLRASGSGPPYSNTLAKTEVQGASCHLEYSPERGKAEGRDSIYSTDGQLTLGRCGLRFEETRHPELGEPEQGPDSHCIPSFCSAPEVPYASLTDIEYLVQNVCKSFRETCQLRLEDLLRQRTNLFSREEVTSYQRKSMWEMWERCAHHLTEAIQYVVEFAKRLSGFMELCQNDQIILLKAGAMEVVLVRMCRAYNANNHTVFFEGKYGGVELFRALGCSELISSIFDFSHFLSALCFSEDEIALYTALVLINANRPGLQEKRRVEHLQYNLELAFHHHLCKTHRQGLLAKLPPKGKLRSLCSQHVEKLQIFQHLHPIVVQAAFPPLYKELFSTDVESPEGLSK
Text: Methods: The Drosophila S2 cell line was originally purchased from Invitrogen and was maintained in Schneider's medium supplemented with 10% heat-inactivated bovine fetal calf serum and antibiotics (Invitrogen). […] The resulting chimeric gene was subcloned into the copper inducible pMT/V5-His A vector (available from Invitrogen).
In order to generate stable cell lines, cells were co-transfected with pMT-G4DBD-RORγt, pMT-G4DBD-RORα, pMT-G4DBD-DHR3, or pMT-G4DBDVP16 and pHygro plasmids (Invitrogen) and screened for resistant colonies in the presence of hygromycin (0.3 mg/mL).
Methods: 600 G4DBD-RORγ/γt-luc reporter (#25) or G4DBD-VP16-luc reporter cells were distributed into each well of 1,536-well white bottom plates in 4 μl S2 cell culture volume containing hygromicin (300 μg/ml) and puromycin (2 μg/ml). […] After one-hour incubation, 1 μl of culture medium solution containing copper sulfate (to final 0.7 mM) and 10 μM RORγ/γt antagonists were added to each well. After 20-hour incubation at ambient temperature, 1.5 μl firefly luciferase detection mix was added and the luciferase activities were measured in 10 min. ViewLux luminometers were used for measuring luciferase signal.
Since their cognate DNA binding sites were not well characterized, the DNA binding domains (DBD) of RORγ/γt, RORα (mouse homolog for POPγ), and DHR3 (Drosophila orthologue for ROR family proteins) were replaced with the heterologous yeast GAL4 DBD. The transcriptionally active domain of general transcriptional activator VP16 was also fused with GAL4 DBD. The GAL4 fusion constructs were placed under the control of a copper inducible promoter, and stable S2 cell lines with genomic integration of these four reporter constructs were generated. The copper inducible promoter ensures tight regulation of GAL4-fusion protein expression and it allows small molecules to get into the cells prior to protein induction, thus increasing their effects on GAL4 reporters. The stable reporter cell lines also encode the firefly luciferase reporter, whose expression is regulated by five copies of the GAL4 binding site enhancer (UAS), along with the pol III-driven Renilla luciferase reporter.
A cell-based reporter assay was used to detect RORγt-mediated activity. This assay, called RORγt□ employed Drosophila Schneider cells that were stably transfected with two vectors: a gene expressing a fusion of the Gal4 DNA binding domain and RORγt transactivation domain under the control of the metallothionine promoter and a Photinus luciferase reporter regulated by the Gal4 binding site enhancer, UAS. […] Cells (600/well) were dispensed into white solid 1536-well plates (Greiner) using a solenoid-based dispenser. Following transfer of 23 nL compound or DMSO vehicle by a pin tool, the plates were incubated 1 hr at ambient temperature, and 1 uL/well copper sulfate (700 uM final concentration) was added. The plates were centrifuged 15 s at 1000 RPM and incubated 20 hr at ambient temperature. After addition of 1.5 uL Photinus luciferase detection reagent, the plates were incubated 10 min at ambient temperature and then read by a ViewLux (Perkin Elmer) to detect luminescence. […] Efficacy is expressed as % of the maximal response of control inhibitor (Digoxin), set at 100%.

Molecule | IC50 [1] [µM] | Emax [%] | further results
1-(3,5-Dimethylpiperidin-1-yl)-3-(2-hydroxy-4,6-dimethoxyphenyl)-3-(3-(methylsulfonyl)phenyl)propan-1-one [Compound 83] | – | – | Efficacy (%) (% of the maximal response of control inhibitor (Digoxin), set at 100%): −93.79%; IC50 (Drosophila S2 cells, Gal4-RORγt luciferase reporter, 20 hr): 1 to 10 µM
COc1cc(O)c(C(CC(=O)N2CCCC(C)C2)c2ccc3c(c2)OCO3)c(OC)c1 (stereo not drawn) [Compound 3] | 1 to 10 | 98.8 | –
COc1cc(O)c(C(CC(=O)N2CCOCC2)c2ccc3c(c2)OCO3)c(OC)c1 (stereo not drawn) [Compound 4] | 11 to 50 | 20.2 | –
COc1cc(O)c(C(CC(=O)N2CCCCC2)c2ccc3c(c2)OCO3)c(OC)c1 (stereo not drawn) [Compound 5] | 11 to 50 | 90.4 | –
COc1cc(O)c(C(CC(=O)N2CCCC(C#N)C2)c2ccc3c(c2)OCO3)c(OC)c1 (stereo not drawn) [Compound 6] | 11 to 50 | 66 | –
CCC1CCCN(C(=O)CC(c2ccc3c(c2)OCO3)c2c(O)cc(OC)cc2OC)C1 (stereo not drawn) [Compound 7] | 1 to 10 | 96.2 | –
CCCC1CCN(C(=O)CC(c2ccc3c(c2)OCO3)c2c(O)cc(OC)cc2OC)C1 (stereo not drawn) [Compound 9] | 11 to 50 | 63.5 | –
CCC1(CC)CCN(C(=O)CC(c2ccc3c(c2)OCO3)c2c(O)cc(OC)cc2OC)C1 (stereo not drawn) [Compound 10] | 11 to 50 | 89 | –
COc1cc(O)c(C(CC(=O)N2CCCC(C(C)C)C2)c2ccc3c(c2)OCO3)c(OC)c1 (stereo not drawn) [Compound 11] | 11 to 50 | 102 | –
COCC1CCCN(C(=O)CC(c2ccc3c(c2)OCO3)c2c(O)cc(OC)cc2OC)C1 (stereo not drawn) [Compound 12] | 11 to 50 | 90.4 | –
CCC(=O)C1CCCN(C(=O)CC(c2ccc3c(c2)OCO3)c2c(O)cc(OC)cc2OC)C1 (stereo not drawn) [Compound 13] | > 50 | – | –
COc1cc(O)c(C(CC(=O)N2CCCC(c3ccccc3)C2)c2ccc3c(c2)OCO3)c(OC)c1 (stereo not drawn) [Compound 14] | 11 to 50 | 70.1 | –
COc1cc(O)c(C(CC(=O)N2CCCC(CN3CCCCC3)C2)c2ccc3c(c2)OCO3)c(OC)c1 (stereo not drawn) [Compound 15] | > 50 | – | –
COc1cc(O)c(C(CC(=O)N2CCCC(C(=O)c3ccccc3)C2)c2ccc3c(c2)OCO3)c(OC)c1 (stereo not drawn) [Compound 16] | > 50 | – | –
COc1cc(O)c(C(CC(=O)N2CCCC(C(=O)N3CCCCC3)C2)c2ccc3c(c2)OCO3)c(OC)c1 (stereo not drawn) [Compound 17] | > 50 | – | –
COc1cc(O)c(C(CC(=O)N2CCCC(c3nc4ccccc4o3)C2)c2ccc3c(c2)OCO3)c(OC)c1 (stereo not drawn) [Compound 18] | 11 to 50 | 90.6 | –
COc1cc(O)c(C(CC(=O)N2CCCC(COc3ccc(F)cc3)C2)c2ccc3c(c2)OCO3)c(OC)c1 (stereo not drawn) [Compound 19] | 11 to 50 | 47.5 | –
COc1cc(O)c(C(CC(=O)N2CCCC(CO)C2)c2ccc3c(c2)OCO3)c(OC)c1 (stereo not drawn) [Compound 20] | 11 to 50 | 44.7 | –
COc1cc(O)c(C(CC(=O)NCc2ccccc2)c2ccc3c(c2)OCO3)c(OC)c1 (stereo not drawn) [Compound 21] | > 50 | – | –
COc1cc(O)c(C(CC(=O)NC2CCC(C)CC2)c2ccc3c(c2)OCO3)c(OC)c1 (stereo not drawn) [Compound 23] | 11 to 50 | 76.8 | –
COc1cc(O)c([C@H](CC(=O)N2CC(C)CC(C)C2)c2ccc3c(c2)OCO3)c(OC)c1 (stereo partly drawn) [Compound 36] | – | 91 | –
COc1cc(O)c(C(CC(=O)N2CCCC2)c2ccc3c(c2)OCO3)c(OC)c1 (stereo not drawn) [Compound 37] | 11 to 50 | 27.1 | –
CCN(CC)C(=O)CC(c1ccc2c(c1)OCO2)c1c(O)cc(OC)cc1OC (stereo not drawn) [Compound 39] | 11 to 50 | 64.9 | –

Further lines, with some results ahead:

IC50 [1] [µM] | Emax [%] | Molecule | further results
> 50 | – | COc1cc(O)c(C(CC(=O)NCC2CCCCC2)c2ccc3c(c2)OCO3)c(OC)c1 (stereo not drawn) [Compound 24] | –
> 50 | – | COc1cc(O)c(C(CC(=O)NC2CCCc3ccccc32)c2ccc3c(c2)OCO3)c(OC)c1 (stereo not drawn) [Compound 26] | –
11 to 50 | 80.7 | COc1cc(O)c(C(CC(=O)N2CCc3ccccc3C2)c2ccc3c(c2)OCO3)c(OC)c1 (stereo not drawn) [Compound 27] | –
> 50 | – | COc1cc(O)c(C(CC(=O)N(C)c2cccc(C)c2)c2ccc3c(c2)OCO3)c(OC)c1 (stereo not drawn) [Compound 28] | –
> 50 | – | COc1cc(O)c(C(CC(=O)Nc2ccc(C)cc2)c2ccc3c(c2)OCO3)c(OC)c1 (stereo not drawn) [Compound 29] | –
> 50 | – | COc1cc(O)c(C(CC(=O)Nc2cccc3ccccc23)c2ccc3c(c2)OCO3)c(OC)c1 (stereo not drawn) [Compound 31] | –
> 50 | – | COc1cc(O)c(C(CC(=O)N2CCc3ccccc32)c2ccc3c(c2)OCO3)c(OC)c1 (stereo not drawn) [Compound 32] | –
> 50 | – | COc1cc(O)c(C(CC(=O)N(Cc2ccccc2)Cc2ccccc2)c2ccc3c(c2)OCO3)c(OC)c1 (stereo not drawn) [Compound 33] | –
> 50 | – | COc1cc(O)c(C(CC(=O)N[C@H](C)c2ccccc2)c2ccc3c(c2)OCO3)c(OC)c1 (stereo partly drawn) [Compound 34] | –
> 50 | – | COc1cc(O)c(C(CC(=O)N2CCN(c3ccc(F)cc3)CC2)c2ccc3c(c2)OCO3)c(OC)c1 (stereo not drawn) [Compound 40] | –
> 50 | – | COc1cc(O)c(C(CC(=O)N2CCC(Cc3ccccc3)CC2)c2ccc(C)cc2)c(OC)c1 (stereo not drawn) [Compound 44] | –
> 50 | – | COc1cc(O)c(C(CC(=O)N2CCC(c3ccccc3)CC2)c2ccc(OC)c(OC)c2)c(OC)c1 (stereo not drawn) [Compound 45] | –
> 50 | – | COc1ccc(C(CC(=O)Nc2ccc(F)cc2)c2ccccc2)cc1 (stereo not drawn) [Compound 46] | –
> 50 | – | Cc1ccc(O)c(C(CC(=O)NC2CCCCC2)c2ccccc2)c1 (stereo not drawn) [Compound 47] | –
> 50 | – | Cc1cccc(C(CC(=O)NCCc2ccccc2)c2ccccc2)c1O (stereo not drawn) [Compound 48] | –
> 50 | – | Cc1cccc(C(CC(=O)NCc2ccco2)c2ccccc2)c1O (stereo not drawn) [Compound 49] | –
> 50 | – | COc1ccccc1C(CC(=O)Nc1ccc(F)cc1)c1ccccc1 (stereo not drawn) [Compound 50] | –
> 50 | – | COc1ccc(C(CC(=O)N2CCCC(C)C2)c2ccccc2)cc1 (stereo not drawn) [Compound 51] | –
> 50 | – | COc1ccccc1C(CC(=O)N1CCCC(C)C1)c1ccccc1 (stereo not drawn) [Compound 52] | –
> 50 | – | CC1CCCN(C(=O)CC(c2ccccc2)c2ccc(O)cc2)C1 (stereo not drawn) [Compound 53] | –
> 50 | – | CC1CCCN(C(=O)CC(c2ccccc2)c2ccccc2O)C1 (stereo not drawn) [Compound 54] | –
> 50 | – | COc1ccccc1C(CC(=O)N1C[C@H](C)C[C@H](C)C1)c1ccccc1 (stereo partly drawn) [Compound 55] | IC50 [2]: > 20 µM
1 to 10 | 30.5 | COc1ccccc1C(CC(=O)N1CCCCC1)c1ccccc1 (stereo not drawn) [Compound 56] | –
11 to 50 | 98.2 | COc1cc(O)c(C(CC(=O)N2CCCC(C)C2)c2ccc(OC)c(OC)c2)c(OC)c1 (stereo not drawn) [Compound 58] | –
> 50 | – | COc1cc(O)c(C(CC(=O)N2CCCC(C)C2)c2ccccc2OC)c(OC)c1 (stereo not drawn) [Compound 59] | IC50 [2]: > 20 µM
1 to 10 | 100 | CCOc1ccc(C(CC(=O)N2CCCC(C)C2)c2c(O)cc(OC)cc2OC)cc1 (stereo not drawn) [Compound 62] | –
1 to 10 | 99.3 | COc1cc(O)c(C(CC(=O)N2CCCC(C)C2)c2ccc(C(C)C)cc2)c(OC)c1 (stereo not drawn) [Compound 64] | IC50 [2]: 1 to 10 µM
1 to 10 | 92.4 | COc1cc(O)c(C(CC(=O)N2CCCC(C)C2)c2ccc3ccccc3c2)c(OC)c1 (stereo not drawn) [Compound 65] | IC50 [2]: 1 to 10 µM
11 to 50 | 52 | COc1cc(O)c(C(CC(=O)N2CCCC(C)C2)c2cccc3ccccc23)c(OC)c1 (stereo not drawn) [Compound 66] | IC50 [2]: 11 to 20 µM
